Laboratory results from ChEMBL document CHEMBL1140438, “Ligand recognition by RAR and RXR receptors: binding and selectivity” (J Med Chem, 2005).

Legend:
[1] = biological target: T1, Retinoic acid receptor gamma (Homo sapiens, UniProt P13631); test: Dissociation constant for Retinoic acid receptor gamma; Not an active agonist; assay type: functional
T1 sequence (P13631 whole entry): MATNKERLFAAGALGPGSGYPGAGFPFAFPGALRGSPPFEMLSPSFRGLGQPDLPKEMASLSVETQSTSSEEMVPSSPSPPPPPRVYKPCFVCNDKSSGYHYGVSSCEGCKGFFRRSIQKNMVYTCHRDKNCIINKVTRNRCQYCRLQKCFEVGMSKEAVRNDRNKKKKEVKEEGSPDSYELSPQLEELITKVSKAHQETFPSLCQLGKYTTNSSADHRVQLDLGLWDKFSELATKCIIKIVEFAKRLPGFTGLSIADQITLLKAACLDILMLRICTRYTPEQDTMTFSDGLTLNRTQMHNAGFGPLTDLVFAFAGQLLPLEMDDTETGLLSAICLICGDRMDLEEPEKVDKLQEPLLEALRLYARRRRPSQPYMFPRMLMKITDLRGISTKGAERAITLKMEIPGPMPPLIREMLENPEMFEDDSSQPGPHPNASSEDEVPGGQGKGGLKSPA

[2] = biological target: T2, Retinoic acid receptor RXR-alpha (Homo sapiens, UniProt P19793); test: Dissociation constant for Retinoid X receptor alpha
T2 sequence (P19793 whole entry): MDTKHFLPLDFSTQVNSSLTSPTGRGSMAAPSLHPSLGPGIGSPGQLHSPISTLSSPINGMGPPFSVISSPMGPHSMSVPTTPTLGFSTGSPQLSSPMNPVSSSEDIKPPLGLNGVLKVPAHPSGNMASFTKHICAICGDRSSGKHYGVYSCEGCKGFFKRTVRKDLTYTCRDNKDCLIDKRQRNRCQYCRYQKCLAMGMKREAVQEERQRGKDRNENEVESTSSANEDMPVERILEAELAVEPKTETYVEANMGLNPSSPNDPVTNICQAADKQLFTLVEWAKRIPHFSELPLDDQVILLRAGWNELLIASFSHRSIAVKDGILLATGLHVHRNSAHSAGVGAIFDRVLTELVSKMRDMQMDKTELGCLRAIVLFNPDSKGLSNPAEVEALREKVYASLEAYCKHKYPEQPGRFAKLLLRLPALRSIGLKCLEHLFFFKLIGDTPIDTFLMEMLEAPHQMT

[3] = biological target: T1, Retinoic acid receptor gamma

Row | Kd [1] | Kd [2] [nM] | Kd [3] [nM] | SMILES
1 | Not Active |  |  | Cc1cc2c(cc1-c1cc(/C=C3\SC(=O)NC3=O)ccc1OC(F)(F)F)C(C(C)C)=CCC2(C)C
2 |  | 32 | 645 | C/C(=C\c1ccc(C(=O)O)cc1)c1cc2c(cc1C)C(C)(C)CCC2(C)C
